# Columns and labels:
# [1] = Fluorescence property of the compound assessed as fluorescence quantum yield in EtOH; assay type: physicochemical
# [2] = tested on: MDA-MB-231; assay: Photocytotoxicity against human MDA-MB-231 cells assessed as inhibition of cell growth incubated for 24 hrs by MTT assay; assay type: functional, cell-based; details: MDA-MB-231, 24 h
# [3] = Photosensitizing ability of the compound in MeOH assessed as singlet oxygen generation at 408 nm measured upto 120 sec by DPBF based assay; assay type: functional
smiles,measurement,setting,value
CC/N=c1/cc2oc3cc(NCC)c(C)cc3c(-c3ccccc3C(=O)OCC)c-2cc1C.Cl,Activity,[1],0.95
C#CCOc1ccc(C2=C3C(C)=C(I)C(C)=[N+]3[B-](F)(F)n3c(C)c(I)c(C)c32)cc1,IC50,[2],25.2 nM
O=C1OC2(c3cc(I)c(O)c(I)c3Oc3c2cc(I)c(O)c3I)c2c(Cl)c(Cl)c(Cl)c(Cl)c21,Activity,[3],0.75

# Source: ChEMBL document CHEMBL5356947, “Mitochondria-targeted biotin-conjugated BODIPYs for cancer imaging and therapy” (RSC Med Chem, 2023)
